Structures are written as SMILES. Where only a bound is given, the exact number is not on record here.

Data on 23 compounds can be found in patent US20170291905A1, “ARGININE […] INHIBITORS AND USES THEREOF” (Epizyme, Inc., priority 2014, published 2017).

T1 sequence (Q99873 whole entry): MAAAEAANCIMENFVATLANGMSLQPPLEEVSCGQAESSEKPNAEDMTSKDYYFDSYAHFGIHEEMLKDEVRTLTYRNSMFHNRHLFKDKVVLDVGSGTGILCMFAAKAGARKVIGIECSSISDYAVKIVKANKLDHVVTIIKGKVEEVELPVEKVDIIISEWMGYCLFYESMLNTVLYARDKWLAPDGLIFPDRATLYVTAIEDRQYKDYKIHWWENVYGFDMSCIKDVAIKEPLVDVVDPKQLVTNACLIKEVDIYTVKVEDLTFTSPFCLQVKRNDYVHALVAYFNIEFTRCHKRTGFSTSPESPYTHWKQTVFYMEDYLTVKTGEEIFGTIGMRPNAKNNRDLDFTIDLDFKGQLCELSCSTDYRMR

This assay addresses T1, PRMT1 (Homo sapiens, UniProt Q99873).
T1 construct: host or cells: RKO cells
Description: RKO methylation assay, In Cell Western (ICW) for mono-methyl arginine and DNA content. It is filed as cell-based. The settings on record: RKO cells, 72 hours, mono-methyl arginine signal normalised to DRAQ5, percent activation. An excerpt:
RKO Methylation Assay RKO adherent cells were purchased from ATCC (American Type Culture Collection), Manassas, Va., USA. DMEM/Glutamax medium, penicillin-streptomycin, heat inactivated fetal bovine serum, 0.05% trypsin and D-PBS were purchased from Life Technologies, Grand Island, N.Y., USA. Odyssey blocking buffer, 800CW goat anti-rabbit IgG (H+L) antibody, and Licor Odyssey infrared scanner were purchased from Licor Biosciences, Lincoln, Nebr., USA. Mono-methyl arginine antibody was purchased from Cell Signaling Technology, Danvers, Mass., USA. Methanol was purchased from VWR, Franklin, Mass., USA. 10% Tween 20 was purchased from KPL, Inc., Gaithersburg, Md., USA. DRAQ5 was purchased from Biostatus Limited, Leicestershire, UK. RKO adherent cells were maintained in growth medium (DMEM/Glutamax medium supplemented with 10% v/v heat inactivated fetal bovine serum and 100 units/mL penicillin-streptomycin) and cultured at 37° C. under 5% CO2. Cell Treatment, in Cell Western (ICW) for Detection of Mono-Methyl Arginine and DNA Content. RKO cells were seeded in assay medium at a concentration of 20,000 cells per mL to a poly-D-lysine coated 384 well culture plate (BD Biosciences 356697) with 50 μL per well. Compound (100 nL) from a 96-well source plate was added directly to 384 well cell plate. Plates were incubated at 37° C., 5% CO2 for 72 hours. After three days of incubation, plates were brought to room temperature outside of the incubator for ten minutes and blotted on paper towels to remove cell media. 50 μL of ice cold 100% methanol was added directly to each well and incubated for 30 min at room temperature. After 30 min, plates were transferred to a Biotek EL406 plate washer and washed 2 times with 100 μL per well of wash buffer (1×PBS). Next 60 μL per well of Odyssey blocking buffer (Odyssey Buffer with 0.1% Tween 20 (v/v)) were added to each plate and incubated 1 hour at room temperature. Blocking buffer was removed and 20 μL per well of primary antibody was added (mono-methyl arginine diluted 1:200 in Odyssey buffer with 0.1% Tween 20 (v/v)) and plates were incubated overnight (16 hours) at 4° C. Plates were washed 5 times with 100 μL per well of wash buffer. Next 20 μL per well of secondary antibody was added (1:200 800CW goat anti-rabbit IgG (H+L) antibody, 1:1000 DRAQ5 (Biostatus limited) in Odyssey buffer with 0.1% Tween 20 (v/v)) and incubated for 1 hour at room temperature. The plates were washed 5 times with 100 μL per well wash buffer then 2 times with 100 μL per well of water. Plates were allowed to dry at room temperature then imaged on the Licor Odyssey machine which measures integrated intensity at 700 nm and 800 nm wavelengths. Both 700 and 800 channels were scanned. […] Each plate included fourteen control wells of DMSO only treatment (minimum activation) as well as fourteen control wells for maximum activation treated with 20 μM of a reference compound. The average of the ratio values for each control type was calculated and used to determine the percent activation for each test well in the plate. Reference compound was serially diluted three-fold in DMSO for a total of nine test concentrations, beginning at 20 μM. Percent activation was determined and EC30 curves were generated using triplicate wells per concentration of compound.
On to `CC[C@]12CC[C@](CC)(C[C@H](c3n[nH]cc3CN(C)CCNC)C1)O2` [compound 37, N1-((3-((1R,3r,5S)-1,5-diethyl-8-oxabicyclo[3.2.1]octan-3-yl)-1H-pyrazol-4-yl)methyl)-N1,N2-dimethylethane-1,2-diamine], for which the “PRMT1 RGG ICW EC30” value was determined as 245.5 nM.
The value for `CC[C@]12CC[C@](CC)(C[C@@H](c3n[nH]cc3CN(C)CCNC)C1)O2` [compound 38, N1-((3-((1R,3s,5S)-1,5-diethyl-8-oxabicyclo[3.2.1]octan-3-yl)-1H-pyrazol-4-yl)methyl)-N1,N2-dimethylethane-1,2-diamine] was >5000 nM; that for `CNCCN(C)Cc1ccnn1[C@H]1CC[C@]2(CC1)CC(C)(C)CO2` [compound 50, N1-((1-((5r,8r)-3,3-dimethyl-1-oxaspiro[4.5]decan-8-yl)-1H-pyrazol-5-yl)methyl)-N1,N2-dimethylethane-1,2-diamine] was 321.2 nM; that for `Cc1[nH]nc([C@H]2CC[C@]3(CC2)CC(C)(C)CO3)c1CN(C)CCN` [compound 52, N1-((3-((5r,8r)-3,3-dimethyl-1-oxaspiro[4.5]decan-8-yl)-5-methyl-1H-pyrazol-4-yl)methyl)-N1-methylethane-1,2-diamine] was 373.6 nM.
The value for `CNCCN(C)Cc1c(C)[nH]nc1[C@H]1CC[C@@]2(CC1)CC(C)(C)CO2` [compound 57] was 40.32 nM; that for `CNCCN(C)Cc1c(C)[nH]nc1[C@H]1CC[C@]2(CC1)CC(C)(C)CO2` [compound 58] was 83.34 nM.
The value for `Cc1[nH]nc(C2CCC3(CC2)CC(C)(C)CO3)c1CN(C)CCN` (centres unmarked) [compound 59] was 193.1 nM; that for `CCOCC1(COCC)CC=C(c2n[nH]cc2CN(C)CCNC)CC1` [compound 60] was 44.67 nM; that for `CNCCN(C)Cc1scnc1[C@H]1CC[C@@]2(CC1)CC(C)(C)CO2` [compound 62] was 6.96 nM.
Consider `CNCCN(C)Cc1nn(C)nc1[C@H]1CC[C@@]2(CC1)CC(C)(C)CO2` [compound 64], for which the “PRMT1 RGG ICW EC30” value was 119 nM.
The same measure for `CNCCN(C)Cc1nn[nH]c1[C@H]1CC[C@@]2(CC1)CC(C)(C)CO2` [compound 67]: 33.9 nM; for `CNCCN(C)Cc1cncn1[C@H]1CC[C@@]2(CC1)CC(C)(C)CO2` [compound 76]: 389.4 nM; for `CNCCN(C)Cc1nc(C)sc1[C@H]1CC[C@@]2(CC1)CC(C)(C)CO2` [compound 77]: 53.11 nM.
The value for `CNCCN(C)Cc1sc(C)nc1[C@H]1CC[C@@]2(CC1)CC(C)(C)CO2` [compound 78] was 29.59 nM; that for `CN(CCN)Cc1nn(C)cc1[C@H]1CC[C@@]2(CC1)CC(C)(C)CO2` [compound 80] was 61.59 nM; that for `CNCCN(C)Cc1nn(C)cc1[C@H]1CC[C@@]2(CC1)CC(C)(C)CO2` [compound 81] was 95.94 nM.
The value for `CNCCN(C)Cc1ncsc1[C@H]1CC[C@@]2(CC1)CC(C)(C)CO2` [compound 83] was 57.96 nM.
Take `CNCCN(C)Cc1scnc1[C@H]1CC[C@]2(CC1)CC(C)(C)CO2` [compound 84]: the “PRMT1 RGG ICW EC30” value stood at 54.69 nM.
The value for `CNCCN(C)Cc1nn(C)nc1C1CCC2(CC1)CC(C)(C)CO2` (centres unmarked) [compound 86] was 443.6 nM.
The value for `CNCCN(C)Cc1nn[nH]c1[C@H]1CC[C@]2(CC1)CC(C)(C)CO2` [compound 89] was 760.4 nM.
The value for `CNCCN(C)Cc1c(Cl)ncn1[C@H]1CC[C@]2(CC1)CC(C)(C)CO2` [compound 97] was >10000 nM.
In the case of `CNCCN(C)Cc1nc(C)sc1[C@H]1CC[C@]2(CC1)CC(C)(C)CO2` [compound 99], the “PRMT1 RGG ICW EC30” value is 95.53 nM.
The value for `CNCCN(C)Cc1sc(C)nc1[C@H]1CC[C@]2(CC1)CC(C)(C)CO2` [compound 100] was 75.86 nM.
